{"source": "paper PMC4987652", "about": "(Scientific Reports, 2016)", "key": {"human MOR-GFP": {"biological_target": "T1, human MOR-GFP (Homo sapiens, UniProt P35372)", "T1 construct": "Human MOR cDNAs (NM_000914) with or without a stop codon were amplified from the Flexi ORF clone; expressed in transfected cells", "T1 sequence (P35372 whole entry)": "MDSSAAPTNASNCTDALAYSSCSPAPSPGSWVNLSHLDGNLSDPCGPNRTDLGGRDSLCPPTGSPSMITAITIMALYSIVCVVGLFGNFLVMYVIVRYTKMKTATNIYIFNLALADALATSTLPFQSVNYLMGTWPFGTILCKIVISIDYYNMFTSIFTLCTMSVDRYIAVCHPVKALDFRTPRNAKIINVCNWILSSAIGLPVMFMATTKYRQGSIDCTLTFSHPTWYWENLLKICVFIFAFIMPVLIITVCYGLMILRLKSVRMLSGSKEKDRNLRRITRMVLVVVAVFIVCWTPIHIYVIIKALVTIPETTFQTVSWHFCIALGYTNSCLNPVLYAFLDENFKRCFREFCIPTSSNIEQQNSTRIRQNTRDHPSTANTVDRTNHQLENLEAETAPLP", "assay_type": "cell-based"}, "human MOR [1]": {"biological_target": "T2, human MOR (Homo sapiens, UniProt P35372)", "T2 sequence (P35372 whole entry)": "as above", "assay_type": "cell-based", "parameters": "Human MOR cDNAs (NM_000914) with or without a stop codon were amplified from the Flexi ORF clone; expressed in transfected cells; pcDNA3.1(+); the cAMP line also carries pGloSensor-22F"}, "rat whole brain [2]": {"test_system": "rat whole brain", "experiment": "Receptor binding assay, primary screening, [3H]-naloxone, rat whole brain", "conditions": "10 μM test compound, mean n = 2"}, "human KOR": {"biological_target": "human KOR (Homo sapiens, UniProt P41145)", "sequence (P41145 whole entry)": "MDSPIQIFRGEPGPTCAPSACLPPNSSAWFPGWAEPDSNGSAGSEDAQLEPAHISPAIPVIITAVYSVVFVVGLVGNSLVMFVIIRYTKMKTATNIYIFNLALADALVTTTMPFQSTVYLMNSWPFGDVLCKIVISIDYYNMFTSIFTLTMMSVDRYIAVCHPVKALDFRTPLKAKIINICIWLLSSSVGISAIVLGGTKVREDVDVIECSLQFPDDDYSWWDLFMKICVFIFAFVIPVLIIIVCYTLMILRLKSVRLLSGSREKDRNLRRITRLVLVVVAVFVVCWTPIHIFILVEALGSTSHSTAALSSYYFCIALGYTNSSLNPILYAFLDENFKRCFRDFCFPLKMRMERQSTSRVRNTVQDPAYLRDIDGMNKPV", "experiment": "Receptor binding assay, primary screening, [3H]-diprenorphine, KOR", "conditions": "10 μM test compound, mean n = 2"}, "[3]": {"biological_target": "human nociception receptor (NOP) (Homo sapiens, UniProt P41146)", "sequence (P41146 whole entry)": "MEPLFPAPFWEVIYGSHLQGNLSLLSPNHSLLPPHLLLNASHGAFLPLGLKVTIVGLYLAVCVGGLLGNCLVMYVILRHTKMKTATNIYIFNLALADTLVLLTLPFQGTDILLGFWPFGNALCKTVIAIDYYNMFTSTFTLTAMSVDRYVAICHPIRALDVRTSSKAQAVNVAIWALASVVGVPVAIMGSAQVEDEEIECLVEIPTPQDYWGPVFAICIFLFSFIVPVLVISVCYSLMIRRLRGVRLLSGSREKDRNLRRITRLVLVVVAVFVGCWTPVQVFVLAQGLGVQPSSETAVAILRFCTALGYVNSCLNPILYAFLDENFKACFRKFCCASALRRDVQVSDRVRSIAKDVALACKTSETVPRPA", "experiment": "Receptor binding assay, primary screening, [3H]-nociceptin, NOP", "conditions": "10 μM test compound, mean n = 2"}, "human MOR [4]": {"biological_target": "T2, human MOR", "experiment": "biochemical", "assay_type": "binding", "conditions": "for % Inhibition of [3H]-diprenorphine binding, MOR: 10 μM test compound, mean n = 2"}, "[5]": {"experiment": "Rat pharmacokinetic study of GJG, plasma LC/MS/MS", "assay_type": "in vivo", "conditions": "GJG 1 g/kg oral, 1 h after administration", "procedure": "A pharmacokinetic study of GJG was performed to identify the bioavailable molecules in PAT. GJG (1 g/kg) was orally administered to rats and blood samples were collected 1 h after administration. Then, representative components of PAT in the collected blood samples were measured by LC/MS/MS. […] Therefore, we further investigated whether ignavine and benzoylmesaconine affect the opioid system.\nMale Sprague-Dawley rats (7 weeks, Japan Clea Inc., Tokyo, Japan) were fasted for more than 16 hours with access to water. At 1 h after oral administration of GJG (1.0 g/10 mL/kg, n = 5), blood samples were collected with a heparin-coated syringe and centrifuged at 1,500 × g for 15 minutes at 4 °C. The plasma samples were stored at −80 °C until use.\nPlasma samples were pretreated by solid-phase extraction (Oasis® MCX μ Elution Plate, 30 μm; Waters Corporation, Milford, MA, USA) and injected into the LC/MS/MS system for analysis. Components of GJG in plasma were measured by a QTRAP®5500 system (AB SCIEX, Framingham, MA, USA) equipped with an Agilent 1260 HPLC system (binary pump, online degasser, auto plate-sampler and column oven; Agilent Technologies, Santa Clara, CA, USA). The lower limits for quantification were 0.01 ng/mL for ignavine; 0.002 ng/mL for benzoylaconine; 0.001 ng/mL for benzoylmesaconine, benzoylhypaconine and 14-anisoylaconine."}, "[6]": {"biological_target": "human δ opioid receptor (DOR) (Homo sapiens, UniProt P41143)", "sequence (P41143 whole entry)": "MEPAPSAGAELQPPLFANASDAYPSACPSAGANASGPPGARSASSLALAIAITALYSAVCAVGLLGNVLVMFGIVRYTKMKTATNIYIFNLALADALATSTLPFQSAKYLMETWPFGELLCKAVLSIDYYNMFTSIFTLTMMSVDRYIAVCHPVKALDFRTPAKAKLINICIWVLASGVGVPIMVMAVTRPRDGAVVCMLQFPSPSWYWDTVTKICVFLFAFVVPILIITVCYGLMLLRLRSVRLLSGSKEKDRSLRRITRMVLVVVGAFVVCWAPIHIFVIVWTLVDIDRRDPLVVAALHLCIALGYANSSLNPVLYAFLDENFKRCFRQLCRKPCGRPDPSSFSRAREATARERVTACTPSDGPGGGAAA", "experiment": "Receptor binding assay, primary screening, [3H]-naltrindole, DOR", "conditions": "10 μM test compound, mean n = 2"}, "human MOR [7]": {"biological_target": "T2, human MOR", "experiment": "biochemical", "assay_type": "binding", "parameters": "Human MOR cDNAs (NM_000914) with or without a stop codon were amplified from the Flexi ORF clone; expressed in transfected cells; pcDNA3.1(+); the cAMP line also carries pGloSensor-22F"}, "[8]": {"parameters": "method as in PMID 7116516", "conditions": "acetic acid-induced writhing and carrageenan paw edema test; cited from earlier work"}, "normal mice [9]": {"test_system": "normal mice", "experiment": "Tail-flick test", "assay_type": "in vivo", "procedure": "(§1) Analgesic activity of ignavine was investigated by the tail-flick (Fig. 6A) and tail-pressure tests in normal mice (Fig. 6B). […] Maximum activity was shown at a dose of 0.1 mg/kg and analgesic activity was attenuated at higher doses. These dose-dependent relationships were similar to the results of in vitro assays.\n(§2) Antinociceptive responses were evaluated by the tail-flick test (Tail flick unit; Ugo Basile, Comerio, Italy) and the tail-pressure test (Pressure analgesimeter; Ugo Basile). The latency (sec) or weight (g) at which mice struggled or withdrew was considered the nociceptive threshold."}, "normal mice [10]": {"test_system": "normal mice", "experiment": "Tail-pressure test", "assay_type": "in vivo", "procedure": "as §1, §2"}, "rat whole brain [11]": {"biological_target": "rat whole brain", "conditions": "read-out: Kd of radioligand, rat brain; assay condition of the binding assay; ref MDS Pharma Services; cited from earlier work"}, "[12]": {"biological_target": "human μ opioid receptor (MOR) (human) (UniProt P35372)", "sequence (P35372 whole entry)": "as the sequence (P35372 whole entry) above"}, "[13]": {"conditions": "intra-peritoneal administration, area under the curve"}, "[14]": {"conditions": "intra-peritoneal, attenuated at higher doses"}}, "note": "“Also recorded” adds a separate entry of the source."}
{"compound": "C[C@@H](NC(=O)[C@@H](N)Cc1ccc(O)cc1)C(=O)NCC(=O)N(C)[C@@H](Cc1ccccc1)C(=O)NCCO", "note": "[DAMGO, D-Ala(2)-N-Me-Phe(4)-Gly-ol(5)-enkephalin, reference compound]", "values": [{"measurement": "MOR internalization (vesicle formation)", "setting": "human MOR-GFP", "result": "vesicles were observed in the intracellular space; also recorded: induced vesicle formation"}, {"measurement": "Effect on forskolin-induced increase of intracellular cAMP", "setting": "human MOR [1]", "result": "inhibited the increase of intracellular cAMP"}]}
{"compound": "COC[C@]12CN(C)C3[C@@H]4[C@H](OC)[C@H]1[C@@]3([C@@H](OC)C[C@H]2O)[C@@H]1C[C@@]2(O)[C@H](OC(=O)c3ccccc3)[C@@H]1[C@]4(O)[C@@H](O)[C@@H]2OC", "note": "[benzoylmesaconine]", "values": [{"measurement": "% Inhibition of [3H]-naloxone binding, rat brain", "setting": "rat whole brain [2]", "result": 17, "unit": "%"}, {"measurement": "% Inhibition of [3H]-diprenorphine binding, KOR", "setting": "human KOR; 10 µM", "result": "Neither ignavine nor benzoylmesaconine inhibited"}, {"measurement": "% Inhibition of [3H]-diprenorphine binding, KOR", "setting": "human KOR; listed as Benzoylmesaconine, 10 µM", "result": 3, "unit": "%"}, {"measurement": "% Inhibition of radioligand binding, NOP", "setting": "[3]", "result": -9, "unit": "%"}, {"measurement": "% Inhibition of [3H]-diprenorphine binding, MOR", "setting": "human MOR [4]", "result": 2, "unit": "%"}, {"measurement": "Plasma concentration after oral GJG", "setting": "[5]", "result": "higher concentrations"}, {"measurement": "% Inhibition of radioligand binding, DOR", "setting": "[6]", "result": -8, "unit": "%"}]}
{"compound": "C=C1C2CC3C4N5CC6(C)C(O)C(OC(=O)c7ccccc7)CC47C6C5CC3(C1O)C7(O)C2", "note": "(stereo not shown) [ignavine]", "values": [{"measurement": "% Inhibition of [3H]-naloxone binding, rat brain", "setting": "rat whole brain [2]; 10 µM", "result": "also inhibited its binding"}, {"measurement": "% Inhibition of [3H]-naloxone binding, rat brain", "setting": "rat whole brain [2]; listed as Ignavine, 10 µM", "result": 92, "unit": "%"}, {"measurement": "IC50", "setting": "human MOR [7]", "result": 2000, "unit": "nM"}, {"measurement": "MOR internalization, ignavine alone", "setting": "human MOR-GFP", "result": "did not affect receptor internalization"}, {"measurement": "Effect on intracellular cAMP levels, ignavine alone", "setting": "human MOR [1]", "result": "no effect"}, {"measurement": "Fold increase of EC50 of DAMGO", "setting": "human MOR [1]", "result": 3.3, "unit": "fold"}, {"measurement": "Modulation of DAMGO activity in cAMP assay, early period", "setting": "human MOR [1]", "result": "enhancing the activity of DAMGO"}, {"measurement": "Modulation of DAMGO activity in cAMP assay, later period", "setting": "human MOR [1]", "result": "inhibiting DAMGO activity"}, {"measurement": "Modulation of endomorphin-1 (EMP-1) activity in cAMP assay", "setting": "human MOR [1]", "result": "positive modulation"}, {"measurement": "Modulation of endomorphin-1 activity in cAMP assay", "setting": "human MOR [1]", "result": "inhibited them"}, {"measurement": "Modulation of morphine (MRP) activity in cAMP assay", "setting": "human MOR [1]", "result": "positive modulation"}, {"measurement": "Modulation of morphine activity in cAMP assay", "setting": "human MOR [1]", "result": "inhibited them"}, {"measurement": "Response in cAMP assay in the presence of naloxone", "setting": "human MOR [1]", "result": "did not show a clear response"}, {"measurement": "% Inhibition of [3H]-diprenorphine binding, KOR", "setting": "human KOR", "result": "Neither ignavine nor benzoylmesaconine inhibited"}, {"measurement": "inhibition at 10 µM", "setting": "human KOR", "result": 0, "unit": "%"}, {"measurement": "inhibition at 10 µM", "setting": "[3]; read-out: % Inhibition of radioligand binding, NOP", "result": -7, "unit": "%"}, {"measurement": "% Inhibition of [3H]-diprenorphine binding, MOR", "setting": "human MOR [4]", "result": "almost completely inhibited"}, {"measurement": "inhibition at 10 µM", "setting": "human MOR [4]; read-out: % Inhibition of [3H]-diprenorphine binding, MOR", "result": 90, "unit": "%"}, {"measurement": "Plasma concentration after oral GJG", "setting": "[5]", "result": "highest concentration among the measured components; also recorded: higher concentrations"}, {"measurement": "inhibition at 10 µM", "setting": "[6]; read-out: % Inhibition of radioligand binding, DOR", "result": -5, "unit": "%"}, {"measurement": "Anti-inflammatory activity and adverse effects", "setting": "[8]", "result": "anti-inflammatory activity"}, {"measurement": "Analgesic activity, tail-flick test", "setting": "normal mice [9]; [13]", "result": "inhibited pain"}, {"measurement": "Dose of maximum analgesic activity, tail-flick test", "setting": "normal mice [9]; [14]", "result": 0.1, "unit": "mg/kg"}, {"measurement": "Analgesic activity, tail-pressure test", "setting": "normal mice [10]; [13]", "result": "inhibited pain"}, {"measurement": "Dose of maximum analgesic activity, tail-pressure test", "setting": "normal mice [10]; [14]", "result": 0.1, "unit": "mg/kg"}]}
{"compound": "C=CCN1CC[C@]23c4c5ccc(O)c4O[C@H]2C(=O)CC[C@@]3(O)[C@H]1C5", "note": "[naloxone]", "values": [{"measurement": "Kd", "setting": "rat whole brain [11]", "result": 1.4, "unit": "nM"}]}
{"compound": "D-Ala(2)-N-Me-Phe(4)-Gly-ol(5)-enkephalin (peptide)", "values": [{"measurement": "EC50 of DAMGO in the intracellular cAMP assay, fold change with 1 μM ignavine against DMSO, 7.5 min after forskolin", "setting": "[12]", "result": 3.8, "unit": "fold"}, {"measurement": "EC50 of DAMGO in the intracellular cAMP assay, fold change with 10 μM ignavine against DMSO, 23.5 min after forskolin", "setting": "[12]", "result": 3.3, "unit": "fold"}]}
